We go through two compounds from article PMC11790660 (Frontiers in Chemistry, 2025).

For series [1], the system named is WI38 normal cells. The experiment in a line: cells. As to conditions: Homo sapiens, WI-38, read-out: IC50 WI38.
Series [2] has as its system HepG2 cell lines (liver tumor cell). The experiment in a line: cells. To be noted: Homo sapiens, HepG2, 24 h, read-out: IC50 HepG2.
A further series relates to A549. The series is described as follows: cells. It counts as cell-based. To be noted: Homo sapiens, A549, read-out: IC50 against cell proliferation, A549.
Series [3] deals with HepG2 cell lines (liver tumor cell).
The test system of series [4] is IL-10 level in RAW264.7 cells. The series is described as follows: ELISA, IL-10 in RAW264.7. It counts as cell-based, Mouse. To be noted: RAW264.7, 24 h.
For a further series, the target named is PI3Kα (Homo sapiens, UniProt P42336). The experiment in a line: In vitro PI3K enzyme inhibitory assay (ADP-Glo), PI3Kα. It counts as biochemical. As to conditions: read-out: PI3Kα % inhibition at 10 μM.
For series [5], the system named is LO2 cell lines (normal liver cell). The series is described as follows: cells. To be noted: Homo sapiens, L02, 24 h, read-out: IC50 LO2.
Series [6] concerns nitrite production in RAW264.7 cells. The experiment in a line: Griess assay, LPS-induced nitrite production in RAW264.7. It counts as cell-based. As to conditions: Mus musculus, 24 h, 1 mg/mL LPS. The text has this: Nitric oxide (NO) affects inflammation signaling pathways, regulating the intensity and timing of inflammatory responses, making it a crucial regulatory molecule in inflammation. LPS induces the production of nitric oxide (NO) by activating a series of signal transduction pathways. Upon NF-κB activation, transcription of the iNOS gene is promoted, leading to the synthesis of inducible nitric oxide synthase (iNOS). iNOS is an enzyme that produces large amounts of NO, activated under inflammatory conditions to release substantial nitric oxide ([Kumar, 2023]). In vivo, NO is easily oxidized by superoxide ions to generate nitrites. Studies have shown that H2S not only acts to scavenge peroxides but also undergoes chemical reactions with NO, forming novel nitrosylthiol compounds. We assess the anti-inflammatory activity of compounds by measuring nitrite production ([Somensi et al., 2019]).
The Griess assay is used to measure nitrite levels in biological samples, both in vivo and in vitro. See Supplementary Material for more details ([Kumar, 2023]).
The Griess assay is used to measure nitrite levels in biological samples, both in vivo and in vitro. […] The absorbance is measured at a wavelength of 540-550 nanometers, and the concentration of the red product is directly proportional to the absorbance. Nitrite concentrations can be calculated using a standard curve.

For series [7], the system named is LO2 cell lines (normal liver cell).
Series [8] relates to TNF-α levels in RAW264.7 cells. The series is described as follows: ELISA, LPS-mediated TNF-α in RAW264.7. It counts as cell-based, Mouse. To be noted: LPS-induced RAW264.7, 24 h, vs control group. A general note: ELISA stands for enzyme-linked immunosorbent assay.
Series [9] has as its system WI38 normal cells.
The next series deals with HeLa. The experiment in a line: cells. To be noted: Homo sapiens, HeLa, read-out: IC50 against cell proliferation, HeLa. It counts as cell-based.
Series [10] is described as follows: H2S release, methylene blue (MB+) method. It counts as physicochemical. To be noted: MB+ method with TECP or cysteine; different temperature and pH.
The test system of the next series is MCF-7. The experiment in a line: cells. To be noted: Homo sapiens, MCF7, read-out: IC50 against cell proliferation, MCF-7. The series is classed as cell-based.
For series [11], the system named is HO-1 levels in RAW264.7 cells. The series is described as follows: ELISA, HO-1 in RAW264.7. It counts as cell-based, Mouse. As to conditions: RAW264.7, 24 h.
The next series deals with AKT. The experiment in a line: In vitro AKT enzyme inhibitory assay. The series is classed as biochemical.
A further series concerns the target PI3Kγ (Homo sapiens, UniProt P48736). The experiment in a line: In vitro PI3K enzyme inhibitory assay (ADP-Glo), PI3Kγ. The series is classed as biochemical. As to conditions: read-out: PI3Kγ % inhibition at 10 μM.
Series [12] deals with RAW264.7 macrophage cells. The experiment in a line: CCK-8 cell viability, RAW264.7 macrophages. The series is classed as cell-based, Mouse. To be noted: 24 h. As for the experimental part:
To obtain more accurate anti-inflammatory results and minimize the impact of cell death caused by the test compounds on the outcomes, we first evaluated the effects of the compounds on RAW264.7 macrophage viability. The cells were divided into two groups: one treated with […] LPS and the other untreated. Macrophages were exposed to compounds at concentrations of 10, 50, and 100 μM for 24 h, followed by cell viability measurement using the CCK-8 assay ([Huang et al., 2022]; [Flannigan and Wallace, 2015]; [Citi et al., 2020]; [Gemici and Wallace, 2015]). […] In the presence of LPS stimulation, a slight reduction of 11% cell activity was observed.
The CCK-8 assay is a commonly used method for assessing cell viability, based on cellular metabolic activity. […]
The CCK-8 assay is a commonly used method for assessing cell viability, based on cellular metabolic activity. […] The culture plate is then incubated in a suitable incubator for a defined period (usually 4 hours), followed by measuring the absorbance of each group's culture medium using a spectrophotometer, typically at a wavelength of 450 nanometers. Cell relative activity or viability is calculated based on absorbance values, often by subtracting the background absorbance from the control group's values and normalizing to the control group's values to obtain relative activity or viability.

A further series addresses PI3Kβ (Homo sapiens, UniProt P42338). The series is described as follows: In vitro PI3K enzyme inhibitory assay (ADP-Glo), PI3Kβ. To be noted: read-out: PI3Kβ % inhibition at 10 μM. It counts as biochemical. A general note: ADP-Glo turns the ADP formed in a reaction into a luminescent signal.

Sequence of PI3Kβ (P42338 whole entry): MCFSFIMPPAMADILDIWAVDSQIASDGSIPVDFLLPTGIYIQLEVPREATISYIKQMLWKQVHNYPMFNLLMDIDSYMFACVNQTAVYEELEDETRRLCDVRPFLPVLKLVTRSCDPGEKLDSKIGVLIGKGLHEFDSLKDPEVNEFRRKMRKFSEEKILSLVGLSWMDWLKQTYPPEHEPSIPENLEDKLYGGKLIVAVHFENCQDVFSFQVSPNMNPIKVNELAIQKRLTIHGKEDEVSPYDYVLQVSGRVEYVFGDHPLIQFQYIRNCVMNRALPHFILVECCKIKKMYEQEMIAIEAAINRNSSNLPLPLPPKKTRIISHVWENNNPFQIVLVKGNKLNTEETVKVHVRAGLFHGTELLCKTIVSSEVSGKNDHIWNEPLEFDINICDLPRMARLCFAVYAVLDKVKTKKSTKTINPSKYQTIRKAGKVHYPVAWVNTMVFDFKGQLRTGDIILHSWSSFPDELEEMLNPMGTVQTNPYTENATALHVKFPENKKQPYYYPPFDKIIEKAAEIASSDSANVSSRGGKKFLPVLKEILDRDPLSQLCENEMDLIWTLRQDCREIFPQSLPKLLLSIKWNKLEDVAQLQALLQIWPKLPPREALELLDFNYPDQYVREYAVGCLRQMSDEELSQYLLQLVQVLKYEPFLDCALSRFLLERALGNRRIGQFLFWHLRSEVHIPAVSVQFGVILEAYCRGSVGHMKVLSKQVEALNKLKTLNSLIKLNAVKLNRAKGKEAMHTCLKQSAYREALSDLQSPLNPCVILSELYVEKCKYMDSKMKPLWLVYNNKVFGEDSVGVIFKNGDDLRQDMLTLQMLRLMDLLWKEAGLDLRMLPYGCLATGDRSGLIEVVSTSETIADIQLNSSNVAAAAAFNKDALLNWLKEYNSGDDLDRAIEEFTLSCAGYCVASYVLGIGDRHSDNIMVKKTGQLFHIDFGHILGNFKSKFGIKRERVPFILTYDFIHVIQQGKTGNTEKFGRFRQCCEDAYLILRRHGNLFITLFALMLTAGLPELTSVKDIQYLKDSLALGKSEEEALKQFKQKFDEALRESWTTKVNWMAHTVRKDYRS
Sequence of PI3Kβ (P27986 whole entry partner): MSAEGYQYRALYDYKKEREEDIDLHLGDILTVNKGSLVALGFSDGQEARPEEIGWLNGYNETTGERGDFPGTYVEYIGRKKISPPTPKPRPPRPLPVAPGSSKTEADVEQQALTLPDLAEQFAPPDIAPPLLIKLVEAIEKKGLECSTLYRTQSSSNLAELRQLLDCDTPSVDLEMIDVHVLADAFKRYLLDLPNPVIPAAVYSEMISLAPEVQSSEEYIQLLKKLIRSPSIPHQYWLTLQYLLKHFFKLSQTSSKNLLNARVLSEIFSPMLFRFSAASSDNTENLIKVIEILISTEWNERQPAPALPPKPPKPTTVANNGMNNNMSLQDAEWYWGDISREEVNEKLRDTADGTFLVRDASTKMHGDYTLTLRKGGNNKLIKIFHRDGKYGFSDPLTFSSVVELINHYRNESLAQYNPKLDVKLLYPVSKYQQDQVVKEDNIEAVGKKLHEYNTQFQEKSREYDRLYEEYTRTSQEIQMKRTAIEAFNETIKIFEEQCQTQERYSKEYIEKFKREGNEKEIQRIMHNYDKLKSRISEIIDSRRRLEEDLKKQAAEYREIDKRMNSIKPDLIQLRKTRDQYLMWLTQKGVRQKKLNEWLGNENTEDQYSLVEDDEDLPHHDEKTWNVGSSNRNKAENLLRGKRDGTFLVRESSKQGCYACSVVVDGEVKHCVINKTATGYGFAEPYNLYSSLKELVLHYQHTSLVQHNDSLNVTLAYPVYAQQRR
Sequence of PI3Kγ (P48736 whole entry): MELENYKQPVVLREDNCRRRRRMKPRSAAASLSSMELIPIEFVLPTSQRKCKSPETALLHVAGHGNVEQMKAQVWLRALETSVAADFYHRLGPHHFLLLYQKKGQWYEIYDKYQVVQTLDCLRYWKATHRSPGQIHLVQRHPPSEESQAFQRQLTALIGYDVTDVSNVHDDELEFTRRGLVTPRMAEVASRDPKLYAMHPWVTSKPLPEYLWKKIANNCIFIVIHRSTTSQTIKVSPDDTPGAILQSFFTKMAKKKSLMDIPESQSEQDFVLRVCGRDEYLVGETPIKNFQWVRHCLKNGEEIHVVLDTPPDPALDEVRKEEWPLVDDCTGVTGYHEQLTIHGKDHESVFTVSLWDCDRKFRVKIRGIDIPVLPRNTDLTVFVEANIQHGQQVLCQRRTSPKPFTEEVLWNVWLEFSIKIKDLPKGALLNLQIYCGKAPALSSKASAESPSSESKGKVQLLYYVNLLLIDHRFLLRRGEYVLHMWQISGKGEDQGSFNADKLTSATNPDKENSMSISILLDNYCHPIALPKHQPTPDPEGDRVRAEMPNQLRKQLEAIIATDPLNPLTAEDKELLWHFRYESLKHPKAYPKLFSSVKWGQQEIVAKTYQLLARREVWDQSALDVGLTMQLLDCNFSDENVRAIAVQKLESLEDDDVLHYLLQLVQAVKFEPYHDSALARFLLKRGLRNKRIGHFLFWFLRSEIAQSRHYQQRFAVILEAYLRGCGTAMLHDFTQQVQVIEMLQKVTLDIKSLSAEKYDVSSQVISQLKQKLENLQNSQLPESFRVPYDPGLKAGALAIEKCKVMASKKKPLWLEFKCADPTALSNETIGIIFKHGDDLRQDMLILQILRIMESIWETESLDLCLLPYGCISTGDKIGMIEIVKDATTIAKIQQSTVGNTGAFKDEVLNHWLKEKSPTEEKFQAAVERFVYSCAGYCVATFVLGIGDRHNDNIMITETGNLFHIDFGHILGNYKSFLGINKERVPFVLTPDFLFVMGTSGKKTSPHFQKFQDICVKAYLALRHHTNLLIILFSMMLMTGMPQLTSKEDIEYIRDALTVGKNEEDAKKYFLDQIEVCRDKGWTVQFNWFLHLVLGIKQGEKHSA
Sequence of PI3Kα (P42336 whole entry): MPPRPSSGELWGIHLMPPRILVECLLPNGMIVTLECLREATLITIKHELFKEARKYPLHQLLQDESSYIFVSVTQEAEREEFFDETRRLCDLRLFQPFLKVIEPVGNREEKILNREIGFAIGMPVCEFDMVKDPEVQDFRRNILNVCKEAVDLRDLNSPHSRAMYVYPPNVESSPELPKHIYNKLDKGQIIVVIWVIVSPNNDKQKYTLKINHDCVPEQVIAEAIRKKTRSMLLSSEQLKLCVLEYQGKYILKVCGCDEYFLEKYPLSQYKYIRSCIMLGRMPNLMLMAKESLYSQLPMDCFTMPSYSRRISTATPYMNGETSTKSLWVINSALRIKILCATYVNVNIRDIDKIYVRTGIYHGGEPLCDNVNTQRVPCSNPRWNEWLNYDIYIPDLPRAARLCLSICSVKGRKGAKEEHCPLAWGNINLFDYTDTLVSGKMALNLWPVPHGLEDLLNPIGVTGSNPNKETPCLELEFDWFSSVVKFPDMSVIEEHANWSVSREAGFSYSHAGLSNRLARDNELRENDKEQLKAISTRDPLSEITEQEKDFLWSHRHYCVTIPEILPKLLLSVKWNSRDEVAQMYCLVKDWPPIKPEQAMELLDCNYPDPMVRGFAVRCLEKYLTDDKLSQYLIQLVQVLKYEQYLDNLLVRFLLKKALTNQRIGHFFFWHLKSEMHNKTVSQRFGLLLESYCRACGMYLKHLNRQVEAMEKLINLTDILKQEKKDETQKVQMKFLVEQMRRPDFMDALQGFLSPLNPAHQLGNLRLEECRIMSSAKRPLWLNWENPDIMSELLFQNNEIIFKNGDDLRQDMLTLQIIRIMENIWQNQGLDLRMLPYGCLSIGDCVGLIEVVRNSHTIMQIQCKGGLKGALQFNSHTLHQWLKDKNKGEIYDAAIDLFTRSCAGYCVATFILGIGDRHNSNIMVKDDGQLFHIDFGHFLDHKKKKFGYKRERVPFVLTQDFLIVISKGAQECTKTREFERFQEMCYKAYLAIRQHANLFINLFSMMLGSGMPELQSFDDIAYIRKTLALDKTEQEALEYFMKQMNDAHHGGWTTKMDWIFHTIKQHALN
Sequence of PI3Kα (P27986 whole entry partner): as the sequence (P27986 whole entry partner) above

One may read the inhibition as the relative decrease from the control value, in per cent. For the compound `O=[N+]([O-])c1ccc2c(c1)NP(=S)(c1ccccc1)O2` (stereo not drawn) [Compound S11, 5-nitro-2-phenyl-3H-benzo [d][1,3,2] oxazaphosphole 2-sulfide], the IC50 with WI38 normal cells [1] is > 200 µM; in series [2] it was > 400 µM; in the series on A549, 294 ± 16.6 µM; in [5], > 200 µM; in the series with HeLa, 260 ± 7.6 µM; in the series on MCF-7, 23 ± 3.2 µM. Further, in series [3], the “Toxicity in words, HepG2” value is “low cytotoxicity”. Further, in series [4], the “Induction level of IL-10 relative to control group” value is recorded as “three times that of the control group”. For the same compound, the inhibition at 10 µM turned out to be 67% on PI3Kα, 45% at PI3Kγ and 75% on PI3Kβ. Moreover, in series [6], the inhibition at 100 µM is ~75%. For the same compound, the “Toxicity in words, LO2” value in series [7] is listed as “low cytotoxicity”. Also, in series [8], the “Decrease of TNF-α induction level” value was found to be 80%. In addition, the “Toxicity in words, WI38” value with WI38 normal cells [9] is “low cytotoxicity”. The “H2S release amount (in words)” value in [10] is on record as “the highest amount of hydrogen sulfide was released”. The “HO-1 expression relative to control group” value in [11] is “approximately twice the level of the control group”. Further, in the series on AKT, the “AKT % inhibition at 10 μM” value was 61%. The “Effect on RAW264.7 cell growth” value in series [12] (absence of LPS, 10, 50, 100 μM) is recorded as “no significant effect on cell growth”. Besides, the “Reduction of RAW264.7 cell activity” value in [12] (presence of LPS stimulation, 10, 50, 100 μM) came to 11%.

Turning to `Oc1cccc(-c2nc(N3CCOCC3)c3oc4ncccc4c3n2)c1` [PI-103, reference compound], the inhibition at 10 µM turned out to be 100% on PI3Kα, 12% at PI3Kγ and 5% at PI3Kβ. Besides, the “AKT % inhibition at 10 μM” value in the series on AKT amounted to 100%.
